Assay results as given in ChEMBL document CHEMBL3991601, “The target landscape of clinical kinase drugs” (Science, 2017).
The source made the active and inactive calls. For most assays here, no stated cut-off is given here; in the data, actives have a measured Kd and inactives only a lower limit.

Legend:
[1] = target: Tyrosine-protein kinase CSK (Homo sapiens, UniProt P41240)
[2] = target: Serine/threonine-protein kinase/endoribonuclease IRE1 (Homo sapiens, UniProt O75460)
[3] = target: Serine/threonine-protein kinase/endoribonuclease IRE2 (Homo sapiens, UniProt Q76MJ5)
Sequence of Serine/threonine-protein kinase/endoribonuclease IRE2 (Q76MJ5 whole entry): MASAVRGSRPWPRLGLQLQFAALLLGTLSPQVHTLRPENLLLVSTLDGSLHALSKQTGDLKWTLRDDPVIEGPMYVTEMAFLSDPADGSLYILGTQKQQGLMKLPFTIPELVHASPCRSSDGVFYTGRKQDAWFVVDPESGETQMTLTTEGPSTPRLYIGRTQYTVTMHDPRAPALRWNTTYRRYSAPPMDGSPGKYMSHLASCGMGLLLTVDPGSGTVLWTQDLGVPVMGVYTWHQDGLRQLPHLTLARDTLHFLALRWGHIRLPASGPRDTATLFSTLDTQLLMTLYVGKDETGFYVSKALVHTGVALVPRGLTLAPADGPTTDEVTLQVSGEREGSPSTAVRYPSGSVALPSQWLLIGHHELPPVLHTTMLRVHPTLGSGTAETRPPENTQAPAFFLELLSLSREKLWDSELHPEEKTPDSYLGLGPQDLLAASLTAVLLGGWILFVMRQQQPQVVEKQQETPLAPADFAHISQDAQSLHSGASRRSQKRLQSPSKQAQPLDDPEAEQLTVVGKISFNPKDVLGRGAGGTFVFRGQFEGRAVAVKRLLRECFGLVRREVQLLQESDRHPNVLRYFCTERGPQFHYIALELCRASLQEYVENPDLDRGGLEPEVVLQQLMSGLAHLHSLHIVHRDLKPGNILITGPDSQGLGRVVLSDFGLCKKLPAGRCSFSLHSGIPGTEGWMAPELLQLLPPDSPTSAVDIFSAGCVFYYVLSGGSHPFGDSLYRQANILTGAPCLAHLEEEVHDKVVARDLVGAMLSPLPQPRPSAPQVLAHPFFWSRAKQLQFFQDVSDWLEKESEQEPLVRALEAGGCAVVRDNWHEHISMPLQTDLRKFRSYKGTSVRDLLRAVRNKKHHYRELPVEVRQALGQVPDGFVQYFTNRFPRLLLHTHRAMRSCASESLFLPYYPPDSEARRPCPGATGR

Insulin receptor = Insulin receptor (Homo sapiens, UniProt P06213)
[4] = target: T1, Dual specificity mitogen-activated protein kinase kinase 5 (Homo sapiens, UniProt Q13163)
T1 sequence (Q13163 whole entry): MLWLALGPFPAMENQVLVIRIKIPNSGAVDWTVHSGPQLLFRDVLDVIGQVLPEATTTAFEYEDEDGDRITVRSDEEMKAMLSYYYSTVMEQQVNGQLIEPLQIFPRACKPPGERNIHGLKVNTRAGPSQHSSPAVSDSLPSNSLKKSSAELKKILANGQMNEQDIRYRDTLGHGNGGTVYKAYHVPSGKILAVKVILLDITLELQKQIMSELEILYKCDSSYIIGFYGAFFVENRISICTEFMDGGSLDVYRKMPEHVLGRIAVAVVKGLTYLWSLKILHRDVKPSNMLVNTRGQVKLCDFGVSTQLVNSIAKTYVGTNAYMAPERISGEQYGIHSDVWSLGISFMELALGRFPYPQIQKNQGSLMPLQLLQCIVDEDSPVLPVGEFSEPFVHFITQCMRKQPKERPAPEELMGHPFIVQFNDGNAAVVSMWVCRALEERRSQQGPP

[5] = target: T2, Mitogen-activated protein kinase 15 (Homo sapiens, UniProt Q8TD08)
T2 sequence (Q8TD08 whole entry): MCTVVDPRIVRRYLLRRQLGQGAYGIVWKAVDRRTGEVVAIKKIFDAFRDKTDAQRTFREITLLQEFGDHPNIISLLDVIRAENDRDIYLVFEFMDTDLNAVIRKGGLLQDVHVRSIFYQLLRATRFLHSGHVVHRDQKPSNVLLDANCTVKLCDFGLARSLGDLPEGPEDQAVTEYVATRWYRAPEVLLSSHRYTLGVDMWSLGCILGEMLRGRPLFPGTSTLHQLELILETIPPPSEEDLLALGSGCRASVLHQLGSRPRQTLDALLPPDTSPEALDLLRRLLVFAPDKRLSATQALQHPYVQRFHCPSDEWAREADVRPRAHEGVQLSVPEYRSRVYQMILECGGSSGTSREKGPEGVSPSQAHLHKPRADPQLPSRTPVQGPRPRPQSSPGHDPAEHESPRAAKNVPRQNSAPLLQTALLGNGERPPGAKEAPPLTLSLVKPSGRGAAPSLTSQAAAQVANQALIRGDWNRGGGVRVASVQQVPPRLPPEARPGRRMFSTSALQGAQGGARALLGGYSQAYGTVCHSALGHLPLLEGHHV

[6] = target: T3, MAP/microtubule affinity-regulating kinase 4 (Homo sapiens, UniProt Q96L34)
T3 sequence (Q96L34 whole entry): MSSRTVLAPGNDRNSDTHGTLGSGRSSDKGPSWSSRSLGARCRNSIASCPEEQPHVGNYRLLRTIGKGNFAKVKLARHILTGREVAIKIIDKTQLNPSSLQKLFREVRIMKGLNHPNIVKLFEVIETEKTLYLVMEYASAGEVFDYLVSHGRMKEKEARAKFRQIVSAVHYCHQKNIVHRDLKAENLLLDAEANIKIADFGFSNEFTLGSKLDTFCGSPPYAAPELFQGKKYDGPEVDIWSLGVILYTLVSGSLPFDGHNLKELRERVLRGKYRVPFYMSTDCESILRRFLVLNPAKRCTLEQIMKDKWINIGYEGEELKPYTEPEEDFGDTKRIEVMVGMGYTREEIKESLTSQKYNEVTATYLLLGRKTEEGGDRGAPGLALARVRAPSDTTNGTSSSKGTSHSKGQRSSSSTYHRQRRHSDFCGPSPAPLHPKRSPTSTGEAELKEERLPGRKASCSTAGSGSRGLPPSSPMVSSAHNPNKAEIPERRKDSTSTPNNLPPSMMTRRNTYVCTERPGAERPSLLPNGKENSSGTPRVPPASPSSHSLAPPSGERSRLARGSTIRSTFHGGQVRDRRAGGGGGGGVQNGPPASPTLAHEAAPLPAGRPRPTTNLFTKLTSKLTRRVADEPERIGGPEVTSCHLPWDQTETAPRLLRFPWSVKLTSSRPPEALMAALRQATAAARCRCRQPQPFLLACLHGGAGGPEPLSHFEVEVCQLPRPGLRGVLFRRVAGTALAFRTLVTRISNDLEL

Focal adhesion kinase 1 = Focal adhesion kinase 1 (Homo sapiens, UniProt Q05397)
Sequence of Focal adhesion kinase 1 (Q05397 whole entry): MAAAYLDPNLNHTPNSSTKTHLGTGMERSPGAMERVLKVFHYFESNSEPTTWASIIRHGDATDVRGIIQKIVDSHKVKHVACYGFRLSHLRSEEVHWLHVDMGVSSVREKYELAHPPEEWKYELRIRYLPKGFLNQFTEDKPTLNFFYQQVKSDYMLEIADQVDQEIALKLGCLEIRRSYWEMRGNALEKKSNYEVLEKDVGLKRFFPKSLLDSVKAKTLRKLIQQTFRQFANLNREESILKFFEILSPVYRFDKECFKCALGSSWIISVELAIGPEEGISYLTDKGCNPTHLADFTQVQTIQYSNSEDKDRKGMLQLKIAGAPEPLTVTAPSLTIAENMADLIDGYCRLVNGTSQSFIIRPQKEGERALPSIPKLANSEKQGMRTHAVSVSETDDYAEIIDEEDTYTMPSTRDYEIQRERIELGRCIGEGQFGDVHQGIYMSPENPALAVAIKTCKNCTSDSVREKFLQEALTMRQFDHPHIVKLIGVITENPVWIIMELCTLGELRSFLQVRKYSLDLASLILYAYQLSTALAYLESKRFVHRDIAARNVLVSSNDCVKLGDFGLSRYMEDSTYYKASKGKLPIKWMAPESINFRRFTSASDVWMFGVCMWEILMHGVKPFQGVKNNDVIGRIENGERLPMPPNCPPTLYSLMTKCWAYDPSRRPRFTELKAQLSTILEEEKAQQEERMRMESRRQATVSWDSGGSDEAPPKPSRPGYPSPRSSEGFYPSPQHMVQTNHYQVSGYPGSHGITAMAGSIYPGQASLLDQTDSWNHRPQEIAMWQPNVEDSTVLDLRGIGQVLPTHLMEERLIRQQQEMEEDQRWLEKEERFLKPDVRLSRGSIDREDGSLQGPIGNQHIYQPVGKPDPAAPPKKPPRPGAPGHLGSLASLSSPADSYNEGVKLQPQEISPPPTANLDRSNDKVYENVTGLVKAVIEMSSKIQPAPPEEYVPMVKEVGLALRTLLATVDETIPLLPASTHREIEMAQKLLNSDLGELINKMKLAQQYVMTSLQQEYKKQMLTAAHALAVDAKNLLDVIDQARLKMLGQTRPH

[7] = target: T4, Glycogen phosphorylase, brain form (Homo sapiens, UniProt P11216)
T4 sequence (P11216 whole entry): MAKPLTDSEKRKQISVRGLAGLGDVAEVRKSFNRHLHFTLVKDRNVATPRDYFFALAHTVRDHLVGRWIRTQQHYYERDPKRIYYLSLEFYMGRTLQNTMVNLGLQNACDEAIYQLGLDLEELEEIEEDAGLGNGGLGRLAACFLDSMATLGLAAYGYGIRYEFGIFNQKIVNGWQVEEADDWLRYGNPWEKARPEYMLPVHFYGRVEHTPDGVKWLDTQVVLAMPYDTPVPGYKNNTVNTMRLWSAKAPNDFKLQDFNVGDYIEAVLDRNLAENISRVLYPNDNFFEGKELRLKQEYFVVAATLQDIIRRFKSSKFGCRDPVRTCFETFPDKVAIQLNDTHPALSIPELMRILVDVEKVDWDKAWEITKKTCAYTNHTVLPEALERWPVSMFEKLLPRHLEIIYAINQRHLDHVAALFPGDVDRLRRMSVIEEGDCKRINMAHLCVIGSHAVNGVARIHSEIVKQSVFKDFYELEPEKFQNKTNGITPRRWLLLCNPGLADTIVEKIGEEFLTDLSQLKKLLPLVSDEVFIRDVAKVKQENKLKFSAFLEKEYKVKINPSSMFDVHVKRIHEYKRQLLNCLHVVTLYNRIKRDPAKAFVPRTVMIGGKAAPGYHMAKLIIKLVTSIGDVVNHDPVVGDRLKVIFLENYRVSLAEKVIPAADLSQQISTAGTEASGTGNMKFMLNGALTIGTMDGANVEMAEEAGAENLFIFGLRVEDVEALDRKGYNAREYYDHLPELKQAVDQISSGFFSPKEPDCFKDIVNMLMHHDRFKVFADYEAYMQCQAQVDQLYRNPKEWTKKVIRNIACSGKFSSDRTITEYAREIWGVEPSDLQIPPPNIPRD

[8] = target: Serine/threonine-protein kinase SIK2 (Homo sapiens, UniProt Q9H0K1)
Sequence of Serine/threonine-protein kinase SIK2 (Q9H0K1 whole entry): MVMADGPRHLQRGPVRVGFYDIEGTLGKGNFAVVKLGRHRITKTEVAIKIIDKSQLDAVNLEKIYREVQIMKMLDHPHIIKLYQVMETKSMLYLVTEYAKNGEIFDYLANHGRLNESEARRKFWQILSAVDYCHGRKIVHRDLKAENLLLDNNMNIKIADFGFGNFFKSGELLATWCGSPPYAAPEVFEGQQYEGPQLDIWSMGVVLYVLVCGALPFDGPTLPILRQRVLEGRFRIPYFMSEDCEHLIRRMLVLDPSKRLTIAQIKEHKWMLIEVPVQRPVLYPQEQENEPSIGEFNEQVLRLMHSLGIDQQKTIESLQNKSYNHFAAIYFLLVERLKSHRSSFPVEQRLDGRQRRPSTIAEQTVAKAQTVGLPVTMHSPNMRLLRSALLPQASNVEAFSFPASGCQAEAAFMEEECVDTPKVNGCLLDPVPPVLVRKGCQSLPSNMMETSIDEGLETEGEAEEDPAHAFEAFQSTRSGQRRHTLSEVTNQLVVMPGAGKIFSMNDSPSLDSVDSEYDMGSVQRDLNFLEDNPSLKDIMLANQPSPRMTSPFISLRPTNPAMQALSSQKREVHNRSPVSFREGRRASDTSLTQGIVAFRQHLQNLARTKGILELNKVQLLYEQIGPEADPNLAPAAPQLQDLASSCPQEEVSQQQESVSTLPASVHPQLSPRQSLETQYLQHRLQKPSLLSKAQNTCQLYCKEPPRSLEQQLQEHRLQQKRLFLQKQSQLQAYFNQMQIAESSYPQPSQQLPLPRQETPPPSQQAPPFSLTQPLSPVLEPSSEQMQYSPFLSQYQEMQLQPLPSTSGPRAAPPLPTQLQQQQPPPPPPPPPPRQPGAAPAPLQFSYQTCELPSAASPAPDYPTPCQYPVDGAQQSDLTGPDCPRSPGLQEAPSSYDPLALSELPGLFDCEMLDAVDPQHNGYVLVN

[9] = target: Serine/threonine-protein kinase SIK3 (Homo sapiens, UniProt Q9Y2K2)

Sequence of Serine/threonine-protein kinase/endoribonuclease IRE1 (O75460 whole entry): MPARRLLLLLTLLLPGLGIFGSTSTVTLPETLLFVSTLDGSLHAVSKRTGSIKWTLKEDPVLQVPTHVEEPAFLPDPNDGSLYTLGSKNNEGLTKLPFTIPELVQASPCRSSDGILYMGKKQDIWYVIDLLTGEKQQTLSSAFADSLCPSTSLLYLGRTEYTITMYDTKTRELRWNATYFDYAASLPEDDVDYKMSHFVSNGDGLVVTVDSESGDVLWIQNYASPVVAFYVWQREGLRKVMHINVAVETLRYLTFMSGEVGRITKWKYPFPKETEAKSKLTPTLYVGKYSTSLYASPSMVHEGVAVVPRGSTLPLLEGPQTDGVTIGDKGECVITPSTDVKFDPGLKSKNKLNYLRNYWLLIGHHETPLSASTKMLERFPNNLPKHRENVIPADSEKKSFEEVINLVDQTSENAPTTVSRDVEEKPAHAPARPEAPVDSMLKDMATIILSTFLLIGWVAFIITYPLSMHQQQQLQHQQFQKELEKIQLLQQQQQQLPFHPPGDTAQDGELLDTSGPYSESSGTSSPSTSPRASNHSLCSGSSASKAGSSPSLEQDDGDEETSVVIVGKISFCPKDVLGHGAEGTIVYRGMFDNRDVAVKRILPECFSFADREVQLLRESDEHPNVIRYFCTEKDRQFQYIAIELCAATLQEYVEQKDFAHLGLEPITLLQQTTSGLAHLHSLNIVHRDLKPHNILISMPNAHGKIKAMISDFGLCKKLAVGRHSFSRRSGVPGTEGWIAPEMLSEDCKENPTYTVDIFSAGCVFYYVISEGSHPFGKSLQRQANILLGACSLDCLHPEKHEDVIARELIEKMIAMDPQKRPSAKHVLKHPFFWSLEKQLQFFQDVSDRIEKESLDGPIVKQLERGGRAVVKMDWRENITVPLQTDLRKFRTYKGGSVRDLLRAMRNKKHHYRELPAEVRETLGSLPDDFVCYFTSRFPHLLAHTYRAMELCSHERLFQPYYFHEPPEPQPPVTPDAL

Row | Compound | Kd [1] | Kd [2] | Kd [3] | Kd (Insulin receptor) | Kd [4] | Kd [6] | Kd (Focal adhesion kinase 1) | Kd [7] | Kd [8] | Kd [9] | Kd [5]
1 | CCNC(=O)C#Cc1ccc2c(c1)NC(=O)/C2=C(\Nc1ccc(CN(C)C)cc1)c1ccccc1 | > 30 µM (inactive) | > 30 µM (inactive) | > 30 µM (inactive) | > 30 µM (inactive) | 0.177 µM (active) | > 30 µM (inactive) | > 30 µM (inactive) | > 30 µM (inactive) | 3.51 µM (active) | > 30 µM (inactive) | > 30 µM (inactive)
2 | C=CC(=O)N1CCC[C@H](n2c(=O)n(-c3ccc(Oc4ccccc4)cc3)c3c(N)ncnc32)C1 | 0.007 µM | > 30 µM (inactive) | > 30 µM (inactive) | > 30 µM (inactive) | > 30 µM (inactive) | > 30 µM (inactive) | > 30 µM (inactive) | > 30 µM (inactive) | > 30 µM (inactive) | > 30 µM (inactive) | > 30 µM (inactive)
3 | Cc1csc(-c2nnc(Nc3ccc(Oc4ncccc4-c4ccnc(N)n4)cc3)c3ccccc23)c1 [AMG-900] | > 30 µM (inactive) | > 30 µM (inactive) | > 30 µM (inactive) | > 30 µM (inactive) | > 30 µM (inactive) | > 30 µM (inactive) | > 30 µM (inactive) | > 30 µM (inactive) | > 30 µM (inactive) | > 30 µM (inactive) | > 30 µM (inactive)
4 | C=CC(=O)Nc1cc2c(Nc3ccc(F)c(Cl)c3)ncnc2cc1C#CC(C)(C)N1CCN(C)CC1 [AV-412 FREE BASE] | > 30 µM (inactive) | > 30 µM (inactive) | > 30 µM (inactive) | > 30 µM (inactive) | > 30 µM (inactive) | > 30 µM (inactive) | > 30 µM (inactive) | > 30 µM (inactive) | > 30 µM (inactive) | > 30 µM (inactive) | > 30 µM (inactive)
5 | Cn1cnc2c(F)c(Nc3ccc(Br)cc3F)c(C(=O)NOCCO)cc21 [BINIMETINIB] | > 30 µM (inactive) | > 30 µM (inactive) | > 30 µM (inactive) | > 30 µM (inactive) | > 30 µM (inactive) | > 30 µM (inactive) | > 30 µM (inactive) | > 30 µM (inactive) | > 30 µM (inactive) | > 30 µM (inactive) | > 30 µM (inactive)
6 | COc1c(OCCCN2CCOCC2)ccc2c1N=C(NC(=O)c1cnc(N)nc1)N1CCN=C21 [COPANLISIB] | > 30 µM (inactive) | > 30 µM (inactive) | > 30 µM (inactive) | > 30 µM (inactive) | > 30 µM (inactive) | > 30 µM (inactive) | > 30 µM (inactive) | > 30 µM (inactive) | > 30 µM (inactive) | > 30 µM (inactive) | > 30 µM (inactive)
7 | C#Cc1cccc(Nc2ncnc3cc(OC)c(OCCCCCCC(=O)NO)cc23)c1 [CUDC-101] | > 30 µM (inactive) | > 30 µM (inactive) | > 30 µM (inactive) | > 30 µM (inactive) | > 30 µM (inactive) | > 30 µM (inactive) | > 30 µM (inactive) | > 30 µM (inactive) | > 30 µM (inactive) | > 30 µM (inactive) | > 30 µM (inactive)

Further lines, with some results ahead:

Row | Kd [1] | Kd [2] | Kd [3] | Kd (Insulin receptor) | Kd [4] | Kd [6] | Kd (Focal adhesion kinase 1) | Kd [7] | Kd [8] | Kd [9] | Compound | Kd [5]
8 | > 30 µM (inactive) | > 30 µM (inactive) | > 30 µM (inactive) | > 30 µM (inactive) | > 30 µM (inactive) | > 30 µM (inactive) | > 30 µM (inactive) | > 30 µM (inactive) | > 30 µM (inactive) | > 30 µM (inactive) | COCc1c(-c2ccc(NC(=O)Nc3cc(C(F)(F)F)ccc3F)c(F)c2)c2c(N)ncnn2c1CN1CCOCC1 | > 30 µM (inactive)
9 | > 30 µM (inactive) | > 30 µM (inactive) | > 30 µM (inactive) | 4.04 µM (active) | 0.146 µM (active) | > 30 µM (inactive) | > 30 µM (inactive) | > 30 µM (inactive) | > 30 µM (inactive) | > 30 µM (inactive) | Nc1ncnc2c1c(-c1cccc(OCc3ccccc3)c1)cn2[C@H]1C[C@@H](CN2CCC2)C1 [AEW-541] | > 30 µM (inactive)
10 | > 30 µM (inactive) | > 30 µM (inactive) | > 30 µM (inactive) | > 30 µM (inactive) | 2.66 µM (active) | > 30 µM (inactive) | > 30 µM (inactive) | > 30 µM (inactive) | > 30 µM (inactive) | > 30 µM (inactive) | Cc1cc(C(=O)NOCCO)c(Nc2ccc(I)cc2F)n(C)c1=O [AZD-8330] | > 30 µM (inactive)
11 | > 30 µM (inactive) | > 30 µM (inactive) | > 30 µM (inactive) | > 30 µM (inactive) | > 30 µM (inactive) | > 30 µM (inactive) | > 30 µM (inactive) | > 30 µM (inactive) | > 30 µM (inactive) | > 30 µM (inactive) | CCn1c(C(=O)N(C2CC2)C2CC2)cc2c3c(ncn3C)c(Nc3cc(C)n(C)n3)nc21 [BMS-911543] | > 30 µM (inactive)
12 | > 30 µM (inactive) | > 30 µM (inactive) | > 30 µM (inactive) | > 30 µM (inactive) | 1.26 µM (active) | > 30 µM (inactive) | > 30 µM (inactive) | > 30 µM (inactive) | > 30 µM (inactive) | > 30 µM (inactive) | COCC(=O)NC/C=C/c1ccc2ncnc(Nc3ccc(Oc4ccc(C)nc4)c(C)c3)c2c1 [CP-724714] | > 30 µM (inactive)
